Laboratory results from ChEMBL document CHEMBL3124856, “Design, synthesis, and pharmacological evaluation of a novel series of pyridopyrazine-1,6-dione γ-secretase modulators” (J Med Chem, 2014).
In brackets after ≈: the same amount, converted by molar mass. Activity calls are given as the source filed them. The rule behind the calls is not given here.

Experiments:
[1] = Apparent intrinsic clearance in human liver microsomes; format: ADME; conditions: read-out: CLH(app)
MDR1 (human) [2] = assay: Efflux ratio of permeability in MDCK cells expressing human MDR1; format: ADME, cell-based, Canis lupus familiaris; conditions: dog
Gamma-secretase [3] = assay: Modulation of gamma-secretase (unknown origin) expressed in CHO cells overexpressing human wild type APP assessed as reduction of amyloid beta 42 level after 24 hrs by ELISA; format: cell-based
[4] = target: T1, Gamma-secretase (Homo sapiens) (UniProt Q96BI3+Q9NZ42+Q8WW43+P49768+Q92542+P49810); assay: Binding affinity to gamma-secretase in human HeLa cells assessed as labeling of PS1-NTF at 5 uM by Western blot analysis in presence of (S)-1-(1-(4-fluorophenyl)ethyl)-3-(3-methoxy-4-(4-methyl-1H-imidazol-1-yl)benzylidene)piperidin-2-one; format: cell-based
[5] = target: T1, Gamma-secretase (Homo sapiens); assay: Binding affinity to gamma-secretase in human HeLa cells assessed as labeling of PS1-NTF at 5 uM by Western blot analysis in presence of GSI-L458; format: cell-based
[6] = target: T1, Gamma-secretase (Homo sapiens); assay: Binding affinity to gamma-secretase in human HeLa cells assessed as labeling of PS1-NTF at 5 uM by Western blot analysis; format: cell-based
[7] = target: T1, Gamma-secretase (Homo sapiens); assay: Binding affinity to gamma-secretase in human HeLa cells assessed as labeling of PS1-NTF at 5 uM by Western blot analysis in presence of 2-[2-(7-Fluoronaphthalen-1-yloxy)ethyl]-7-(4-methyl-1H-imidazol-1-yl)-3,4-dihydro-1H-pyrido[1,2-a]pyrazine-1,6(2H)-dione; format: cell-based
Gamma-secretase [8] = assay: Inhibition of gamma-secretase in human HeLa cells assessed as reduction of amyloid beta 42 level preincubated for 30 mins measured after 1.5 hrs by Western blotting analysis; format: cell-based
[9] = Apparent intrinsic clearance in rat liver microsomes; format: ADME; conditions: read-out: CLH(app)
Cytochrome P450 1A2 = target: T2, Cytochrome P450 1A2 (Homo sapiens, UniProt P05177); assay: Inhibition of CYP1A2 (unknown origin); format: ADME
T2 sequence (P05177 whole entry): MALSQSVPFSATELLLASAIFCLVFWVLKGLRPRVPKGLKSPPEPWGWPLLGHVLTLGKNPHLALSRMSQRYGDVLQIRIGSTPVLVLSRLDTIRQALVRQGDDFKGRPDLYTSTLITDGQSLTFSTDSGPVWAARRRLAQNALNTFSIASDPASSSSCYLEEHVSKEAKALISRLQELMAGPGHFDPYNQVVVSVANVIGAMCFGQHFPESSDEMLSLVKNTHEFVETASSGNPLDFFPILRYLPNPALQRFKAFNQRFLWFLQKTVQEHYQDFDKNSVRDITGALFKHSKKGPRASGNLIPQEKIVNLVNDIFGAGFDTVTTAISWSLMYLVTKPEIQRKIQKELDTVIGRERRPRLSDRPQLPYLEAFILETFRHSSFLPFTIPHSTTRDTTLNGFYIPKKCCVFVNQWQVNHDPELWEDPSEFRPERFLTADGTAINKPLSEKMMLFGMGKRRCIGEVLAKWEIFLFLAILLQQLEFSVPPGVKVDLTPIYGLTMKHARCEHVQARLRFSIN

[10] = Aqueous kinetic solubility of the compound at pH 6.5; format: physicochemical; conditions: read-out: Kinetic_solubility
[11] = Lipophilicity, log D of the compound by shake flask method; format: physicochemical; conditions: octanol/water
[12] = Passive apparent permeability from apical to basolateral side in RRCK cells; format: ADME, cell-based, Canis lupus familiaris, MDCKII-LE; conditions: dog, MDCK
[13] = Fraction unbound in rat plasma; format: ADME, cell-free
[14] = Fraction unbound in rat brain; format: ADME, tissue-based
[15] = Ratio of unbound drug level in brain to plasma in rat; format: ADME
[16] = Ratio of drug uptake in brain to plasma in rat at 5 mg/kg, po after 1 hr; format: ADME, organism-based; design: dose 5 mg/kg, route oral; conditions: read-out: BPR
[17] = Drug uptake in rat brain at 5 mg/kg, po after 1 hr; format: ADME, organism-based; design: dose 5 mg/kg, route oral; conditions: read-out: Drug uptake
[18] = Plasma concentration in rat at 5 mg/kg, po after 1 hr; format: ADME, organism-based; design: dose 5 mg/kg, route oral
[19] = Bioavailability in rat at 1 mg/kg, iv and 5 mg/kg, po; format: ADME, organism-based; conditions: in vivo
[20] = Volume of distribution at steady state in rat at 1 mg/kg, iv; format: ADME, organism-based; design: dose 1 mg/kg, route intravenous; conditions: in vivo, read-out: Vdss
[21] = Half life in rat at 1 mg/kg, iv; format: ADME, organism-based; design: dose 1 mg/kg, route intravenous; conditions: in vivo
[22] = Clearance in rat at 1 mg/kg, iv; format: ADME, organism-based; design: dose 1 mg/kg, route intravenous; conditions: in vivo
MDR1 (human) [23] = assay: Permeability from apical to basolateral side in MDCK cells expressing human MDR; format: ADME, cell-based, Canis lupus familiaris; conditions: dog, read-out: permeability
Gamma-secretase [24] = assay: Modulation of gamma secretase in HEK293 NdeltaE cells assessed as inhibition of notch signalling; format: cell-based, Homo sapiens
Cytochrome P450 3A4 = Cytochrome P450 3A4 (Homo sapiens, UniProt P08684); assay: Inhibition of CYP3A4 (unknown origin); format: ADME
Chain of Cytochrome P450 3A4 (P08684 whole entry): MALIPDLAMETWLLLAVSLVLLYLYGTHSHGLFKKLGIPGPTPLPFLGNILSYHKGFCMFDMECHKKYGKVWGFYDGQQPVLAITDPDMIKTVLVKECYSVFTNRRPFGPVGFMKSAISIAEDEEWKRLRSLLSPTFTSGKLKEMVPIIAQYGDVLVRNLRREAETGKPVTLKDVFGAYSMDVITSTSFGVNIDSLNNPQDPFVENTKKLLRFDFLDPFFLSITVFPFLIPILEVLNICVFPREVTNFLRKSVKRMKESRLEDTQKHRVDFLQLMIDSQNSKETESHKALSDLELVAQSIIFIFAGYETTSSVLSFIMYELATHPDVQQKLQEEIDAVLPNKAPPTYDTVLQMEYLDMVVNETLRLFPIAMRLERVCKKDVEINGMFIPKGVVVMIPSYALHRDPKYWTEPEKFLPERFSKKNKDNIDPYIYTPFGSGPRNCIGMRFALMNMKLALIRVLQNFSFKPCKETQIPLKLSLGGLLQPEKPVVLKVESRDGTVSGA

Cytochrome P450 2D6 = Cytochrome P450 2D6 (Homo sapiens, UniProt P10635); assay: Inhibition of CYP2D6 (unknown origin); format: ADME
Chain of Cytochrome P450 2D6 (P10635 whole entry): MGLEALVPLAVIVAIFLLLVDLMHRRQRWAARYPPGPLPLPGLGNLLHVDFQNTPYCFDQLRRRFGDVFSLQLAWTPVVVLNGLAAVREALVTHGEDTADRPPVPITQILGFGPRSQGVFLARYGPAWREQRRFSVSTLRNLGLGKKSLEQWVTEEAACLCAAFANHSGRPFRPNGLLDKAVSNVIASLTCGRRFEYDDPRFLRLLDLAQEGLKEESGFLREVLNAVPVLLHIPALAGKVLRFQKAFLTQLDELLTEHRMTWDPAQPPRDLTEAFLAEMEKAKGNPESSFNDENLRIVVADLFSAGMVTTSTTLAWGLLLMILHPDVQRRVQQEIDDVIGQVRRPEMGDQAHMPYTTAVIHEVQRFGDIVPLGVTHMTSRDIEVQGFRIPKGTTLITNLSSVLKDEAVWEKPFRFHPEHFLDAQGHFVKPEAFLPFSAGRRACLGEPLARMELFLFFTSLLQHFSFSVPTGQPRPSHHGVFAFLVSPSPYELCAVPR

Cytochrome P450 2C9 = Cytochrome P450 2C9 (Homo sapiens, UniProt P11712); assay: Inhibition of CYP2C9 (unknown origin); format: ADME
Chain of Cytochrome P450 2C9 (P11712 whole entry): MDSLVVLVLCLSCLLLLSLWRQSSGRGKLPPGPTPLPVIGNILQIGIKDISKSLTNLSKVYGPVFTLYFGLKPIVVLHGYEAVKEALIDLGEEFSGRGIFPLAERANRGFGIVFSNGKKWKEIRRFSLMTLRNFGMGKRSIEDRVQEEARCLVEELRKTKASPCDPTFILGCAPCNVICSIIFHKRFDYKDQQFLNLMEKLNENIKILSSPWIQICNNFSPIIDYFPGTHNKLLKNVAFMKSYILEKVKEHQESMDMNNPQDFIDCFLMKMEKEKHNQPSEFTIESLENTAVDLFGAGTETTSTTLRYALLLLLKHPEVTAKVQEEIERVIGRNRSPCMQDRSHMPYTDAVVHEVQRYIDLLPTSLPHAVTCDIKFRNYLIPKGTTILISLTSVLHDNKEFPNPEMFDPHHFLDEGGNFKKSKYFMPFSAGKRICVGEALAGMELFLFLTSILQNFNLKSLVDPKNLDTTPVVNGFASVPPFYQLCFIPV

Cytochrome P450 2C8 = target: T3, Cytochrome P450 2C8 (Homo sapiens, UniProt P10632); assay: Inhibition of CYP2C8 (unknown origin); format: ADME
T3 sequence (P10632 whole entry): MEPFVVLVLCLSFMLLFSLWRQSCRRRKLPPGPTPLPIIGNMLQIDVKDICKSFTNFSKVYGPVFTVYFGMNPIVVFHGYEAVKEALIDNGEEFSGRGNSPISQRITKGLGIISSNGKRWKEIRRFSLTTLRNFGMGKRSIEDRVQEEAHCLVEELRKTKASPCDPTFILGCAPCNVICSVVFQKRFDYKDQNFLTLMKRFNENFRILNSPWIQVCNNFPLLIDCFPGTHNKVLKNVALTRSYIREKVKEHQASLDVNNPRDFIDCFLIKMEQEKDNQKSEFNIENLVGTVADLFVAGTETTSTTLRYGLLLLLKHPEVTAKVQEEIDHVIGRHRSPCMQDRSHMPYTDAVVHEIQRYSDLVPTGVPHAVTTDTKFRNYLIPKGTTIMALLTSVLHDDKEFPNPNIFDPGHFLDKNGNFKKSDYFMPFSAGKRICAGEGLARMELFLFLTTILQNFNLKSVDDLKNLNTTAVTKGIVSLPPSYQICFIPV

Cytochrome P450 2C19 = Cytochrome P450 2C19 (Homo sapiens, UniProt P33261); assay: Inhibition of CYP2C19 (unknown origin); format: ADME
Chain of Cytochrome P450 2C19 (P33261 whole entry): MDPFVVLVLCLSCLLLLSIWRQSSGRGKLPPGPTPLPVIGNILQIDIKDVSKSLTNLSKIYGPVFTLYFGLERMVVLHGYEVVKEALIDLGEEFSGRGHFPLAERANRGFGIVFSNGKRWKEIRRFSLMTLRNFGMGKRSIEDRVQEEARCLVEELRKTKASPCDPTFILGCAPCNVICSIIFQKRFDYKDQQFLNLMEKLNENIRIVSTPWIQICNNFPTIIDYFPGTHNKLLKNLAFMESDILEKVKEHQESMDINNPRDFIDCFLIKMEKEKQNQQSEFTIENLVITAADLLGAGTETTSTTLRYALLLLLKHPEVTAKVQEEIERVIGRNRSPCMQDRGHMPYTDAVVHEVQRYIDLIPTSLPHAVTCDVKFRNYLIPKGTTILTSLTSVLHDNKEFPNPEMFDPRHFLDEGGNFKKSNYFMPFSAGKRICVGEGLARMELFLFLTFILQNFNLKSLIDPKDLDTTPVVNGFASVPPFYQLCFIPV

[25] = Apparent intrinsic clearance in human hepatocytes; format: ADME, cell-based, Hepatocyte; conditions: read-out: CLH(app)

Structure (SMILES): COc1c(-n2cnc(C)c2)ccc2c(=O)n(CCc3cccc(Cl)c3)ccc12
- CLint scaled [1]: 36.1 mL/min/kg
- efflux ratio (MDR1 (human) [2]): 1.2
- IC50 (Gamma-secretase [3]): 3400 nM

Structure (SMILES): C#CCCCOc1ccc(C(=O)c2cccc(OCCN3CCn4c(ccc(-n5cnc(C)c5)c4=O)C3=O)c2)cc1
- Activity [4]: inactive
- Activity [5]: inactive
- Activity [6]: Active
- Activity [7]: Active
- IC50 (Gamma-secretase [8]): 135 nM

Structure (SMILES): Cc1cn(-c2ccc3n(c2=O)CCN(CCOc2cccc4ccc(F)cc24)C3=O)cn1
- CLint scaled [9]: 469 mL/min/kg
- CLint scaled [1]: 30 mL/min/kg
- efflux ratio (MDR1 (human) [2]): 1.5
- IC50 (Gamma-secretase [3]): 15 nM

Structure (SMILES): Cc1cn(-c2ccc3n(c2=O)CCN(CCOc2cccc(C(F)(F)F)c2)C3=O)cn1
- CLint scaled [9]: 79.4 mL/min/kg
- CLint scaled [1]: < 8 mL/min/kg
- efflux ratio (MDR1 (human) [2]): 1.2
- IC50 (Gamma-secretase [3]): 530 nM

Structure (SMILES): Cc1cn(-c2ccc3n(c2=O)CCN(CCOc2ccc(C(F)(F)F)cc2)C3=O)cn1
- CLint scaled [9]: 40.3 mL/min/kg
- CLint scaled [1]: < 9.7 mL/min/kg
- efflux ratio (MDR1 (human) [2]): 1.5
- IC50 (Gamma-secretase [3]): 1270 nM

Structure (SMILES): Cc1cn(-c2ccc3n(c2=O)CCN(CCOc2ccc(F)cc2C(F)(F)F)C3=O)cn1
- IC50 (Cytochrome P450 1A2): > 30000 nM
- solubility kinetic [10]: 177 µM (≈ 79.7 µg/mL)
- logD [11]: 2.75
- CLint scaled [9]: 44.1 mL/min/kg
- CLint scaled [1]: < 8.8 mL/min/kg
- Papp A→B [12]: 17.7 ×10⁻⁶ cm/s
- efflux ratio (MDR1 (human) [2]): 1.5
- IC50 (Gamma-secretase [3]): 252 nM
- fraction unbound [13]: 0.055
- fraction unbound [14]: 0.032
- Kp uu [15]: 0.43
- Kp at 1 h [16]: 0.74
- concentration at 1 h [17]: 718 ng/mL
- concentration at 1 h [18]: 964 ng/mL
- bioavailability [19]: 100%
- Vd [20]: 1.91 L/kg
- half-life [21]: 2.09 h
- clearance [22]: 14.3 mL/min/kg
- Papp A→B (MDR1 (human) [23]): 13.1 ×10⁻⁶ cm/s
- IC50 (Gamma-secretase [24]): > 50000 nM
- IC50 (Cytochrome P450 3A4): > 30000 nM
- IC50 (Cytochrome P450 2D6): > 30000 nM
- IC50 (Cytochrome P450 2C9): > 30000 nM
- IC50 (Cytochrome P450 2C8): 19000 nM
- IC50 (Cytochrome P450 2C19): > 30000 nM

Structure (SMILES): Cc1cn(-c2ccc3n(c2=O)CCN(CCOc2ccccc2Cl)C3=O)cn1
- CLint scaled [9]: 117 mL/min/kg
- CLint scaled [1]: < 10.4 mL/min/kg
- efflux ratio (MDR1 (human) [2]): 1.5
- IC50 (Gamma-secretase [3]): 1500 nM

Structure (SMILES): Cc1cn(-c2ccc3n(c2=O)CCN(CCOc2ccccc2C(F)(F)F)C3=O)cn1
- CLint scaled [9]: 97 mL/min/kg
- CLint scaled [1]: 12.7 mL/min/kg
- efflux ratio (MDR1 (human) [2]): 1.5
- IC50 (Gamma-secretase [3]): 311 nM
- bioavailability [19]: 23%

Structure (SMILES): Cc1cn(-c2ccc3c(=O)n(Cc4cccc(C(F)(F)F)c4)ccc3c2O)cn1
- CLint scaled [1]: 12.3 mL/min/kg
- efflux ratio (MDR1 (human) [2]): 1.1
- IC50 (Gamma-secretase [3]): 920 nM

Structure (SMILES): COc1cc(C(=O)NCc2cccc(C(F)(F)F)c2)ccc1-n1cnc(C)c1
- CLint scaled [1]: 27.8 mL/min/kg
- IC50 (Gamma-secretase [3]): 660 nM

Structure (SMILES): Cc1cn(-c2ccc3n(c2=O)CCN(CC2(c4ccc(Cl)cc4)CC2)C3=O)cn1
- CLint scaled [9]: 482 mL/min/kg
- CLint scaled [25]: < 2.8 mL/min/kg
- CLint scaled [1]: 8.1 mL/min/kg
- efflux ratio (MDR1 (human) [2]): 1.7
- IC50 (Gamma-secretase [3]): 410 nM

Structure (SMILES): Cc1cn(-c2ccc3n(c2=O)CCN(Cc2cccc(C(F)(F)F)c2)C3=O)cn1
- CLint scaled [9]: < 25.4 mL/min/kg
- CLint scaled [1]: < 8 mL/min/kg
- efflux ratio (MDR1 (human) [2]): 1.5
- IC50 (Gamma-secretase [3]): 1630 nM

Structure (SMILES): COc1cc2c(=O)n(CCc3cccc(Cl)c3)ccc2cc1-n1cnc(C)c1
- CLint scaled [1]: 32.7 mL/min/kg
- efflux ratio (MDR1 (human) [2]): 1
- IC50 (Gamma-secretase [3]): > 15800 nM
